In one assay the test system is SQSM. In words: Multigene assay (QuantiGene Plex 2.0), human HeLa cell line. The assay is classed as cell-based. Particulars: 6 hours post-compound treatment, Table 7. The protocol:
(§1) This assay used the QuantiGene Plex 2.0 Reagent System from Affymetrix. This assay combines the use of bDNA (branch DNA) and xMAP magnetic capture beads from Luminex Technologies to quantitatively and simultaneously detect multiple mRNA transcripts per well. The overall procedure was performed according to the QuantiGene Plex 2.0 Reagent System instruction manual from Affymetrix.
(§2) Cells were seeded at a density of 12,000 cells/well in 96-well plates with an overnight incubation at 37° C., 5% CO2. Cells were treated with serially diluted compounds in a 7-point dose dependent manner. Cell lysis with 50% [v/v] Panomics Lysis Mixture (Lysis Mixture+10 μl/ml 25 Proteinase K) was performed 6 hours post-compound treatment. Lysed cells were heated at 50° C. to ensure appropriate lysing and the plates were then frozen at −80° C. Cell lysates, thawed at room temperature on the day of the assay, were pooled with mouse 8-gene multiplex probe sets and with 8 different sets of magnetic capture beads (Luminex Technology, Austin, Tex.) in a 100 μl/well volume. Biomek FX was used at every liquid transfer step. The eight plates containing lysate-probe-bead mixtures were incubated at 54° C.±1° C. on a shaking platform for an overnight incubation in the dark (18-20 hours). The following day the hybridization plates were compressed by transferring the hybridized lysates into a single magnetic capture plate. The plate was kept on a magnet to hold the beads and then washed with Panomics Wash Buffer 2.0 on a BioTek ELx405 select plate washer to remove any unbound sample. This step was followed by serial hybridizations and washings of the bDNA pre-amplifier (1 hour, 50° C.), bDNA amplifier (1 hour, 50° C.), label probe (1 hour, 50° C.), and streptavidin-phycoerythrin (SAPE, 30 minutes, room temperature). (Zhang, A. et al. Small interfering RNA and gene expression analysis using a multiplex branched DNA assay without RNA purification. J Biomol Screen 10, 549-56 (2005)). The plate was then washed with SAPE wash buffer to remove unbound SAPE and each well was analyzed with the Luminex FlexMap3D (Luminex, Austin, Tex.). SAPE fluorescence measured from each bead was proportional to the number of mRNA transcripts captured by the beads (Zheng, Z., Luo, Y. & McMaster, G. K. Sensitive and quantitative measurement of gene expression directly from a small amount of whole blood. Clin Chem 52, 1294-302 (2006)). Fold changes in gene expression were obtained for each gene per well by normalizing the raw data first to the DMSO control and then to a housekeeping gene (TBP-TATA binding protein or Tub1-alpha-tubulin).

In assay [1] the test system is Hspa1a. The assay is described as above. The assay is classed as cell-based. Particulars: 6 hours post-compound treatment, Table 7. The protocol:
as §1, §2

The test system of assay [2] is HspA5. The assay is described as above. The assay is classed as cell-based. Particulars: 6 hours post-compound treatment, Table 7. The protocol:
as §1, §2

Assay [3] has as its system GCLM. The assay is described as above. The assay is classed as cell-based. Particulars: 6 hours post-compound treatment, Table 7. The protocol: as §1, §2
Assay [4] deals with DDIT3. Described as above. The assay is classed as cell-based. Particulars: 6 hours post-compound treatment, Table 7.
The subject of a further assay is HMOX1. The description is as above. The assay is classed as cell-based. Particulars: 6 hours post-compound treatment, Table 7.
For another assay, the system named is firefly luciferase. In words: Luciferase folding assay (Lucif.). The assay is classed as cell-based, human. Particulars: HeLa-luciferase cells; Table 1a. An excerpt:
Firefly luciferase is a commonly used bioluminescent reporter. This monomeric enzyme of 61 kDa catalyzes a two-step oxidation reaction to yield light, usually in the green to yellow region, typically 550-570 nm. The first step of this reaction is activation of the luciferyl carboxylate by ATP to yield a reactive mixed anhydride. In the second step, the activated intermediate reacts with oxygen to create a transient dioxetane that breaks down to the oxidized products, oxyluciferin and CO2. Upon mixing with substrates, firefly luciferase produces an initial burst of light that decays over about 15 seconds to a low level of sustained luminescence. This kinetic profile reflects the slow release of the enzymatic product, thus limiting catalytic turnover after the initial reaction.
This mammalian cell based assay that used firefly luciferase as a sensor was used to screen for compounds that may modulate the cellular folding environment.
HeLa luciferase cell lines: Frozen bullets containing the cells were thawed briefly at 37° C. then placed into a T-150 flask containing 30-35 ml DMEM medium+Penicillin/Strep (1% final+10% FBS (final)+Geneticin @ 200-500 ug/ml. Cell cultures were maintained at 37° C. with 5% CO2 and water in the bottom of the incubator to keep cells healthy. Upon expanding cell line, luciferase measurements were taken to make sure that activity levels were between 2000-5000 (RLU) when plated at 15K/well in a 96-well format (Bright-Glo Promega) before compound treatment.
Compound treatment of HeLa-luciferase cells: HeLa-luciferase WT cells were plated in a 96-well format at 15K/well the day prior to performing compound treatment and/or luciferase assay. […] Final volume used per well was 90 uL. Flat bottom, white polystyrene plates were used for plating the cells.
For compound treatment, stocks of compounds were made up at 10 mM concentration in DMSO. Stocks compounds were diluted by 100× fold in the same media used for culturing the cells—this leads to a 0.1 mM (or 100 uM) concentration. After diluting the compound in media, 10 uL of the 100 uM solution was placed into each well of cells (90 uL); making the final concentration of the compound 10 uM. If serial dilutions of compounds were tested, serial dilutions of compounds were first made in DMSO accordingly, and further diluted in the media, prior to adding to cells. This procedure allowed for constant final levels of DMSO concentrations, regardless of initial compound concentration.
Performing luciferase activity assay: Bright-Glo Luciferase Assay Reagent (Promega cat #: E2610, E2620, E2650) was thawed out at RT in a water bath. Alternatively, Bright-Glo Luciferase assay buffer (prior to mixing with substrate) was stored overnight at RT, prior to using.
Following compound treatment, plates were removed from 37° C. and allowed to acclimate to RT for 5-10 min. Bright-Glo reagent was added to each cell-containing well in a 1:1 ratio (e.g., 100 uL of Bright Glo for each 100 uL cells).
Plates were placed on a plate shaker for 5 min, removing any air bubbles on the surface (which may interfere with proper reads), and then read on an EnVision 2104 Multilabel reader, Emission filter Luminescence 700, barcode 212, WL 400-700 nm.
Data for representative compounds in this assay are shown under the heading “Lucif.”

The subject of assay [5] is medium spiny neurons in rat brain slices transfected with human mutant huntingtin-based constructs. Nature of the assay: Huntington's disease brain slice-based screening assay. The conditions noted are these: ex vivo rat brain slices transfected with Htt-exon1-Q73 construct; at concentrations from 0.1 uM to 3 uM (tested 0.03, 0.1, 0.3, 1 and 3 uM). The assay is classed as cell-based. The protocol: The FIGURE is a bar graph showing the number of healthy medium spiny neurons in rat brain slices for YFP, mN90Q73, KW+SP (positive control) and for [4-(2-isopropoxyphenyl)-2-methyl-5-oxo-7-(thiophen-2-yl)-1,4,5,6,7,8-hexahydroquinoline-3-carbonitrile] exposure at 0.03, 0.1, 0.3, 1 and 3 uM. Hemi-coronal brain slices containing striatum were prepared and transfected with control and huntingtin (Htt) constructs. YFP is Yellow Fluorescence Protein (YFP) plus vector. mN90Q73 is YFP plus the Htt-exon1-Q73 construct. The combination of KW-6002 (50 uM) and SP600125 (30 uM) was used as a positive control.
Selected compounds that modulated proteostasis network genes were tested in an ex vivo screening assay in which rat brain slices were transfected with human mutant huntingtin-based constructs as described in Reinhart et al., Identification of anti-inflammatory targets for Huntington's disease using a brain slice-based screening assay, Neurobiology of Disease (2011), 43(1), 248-256, the contents of which are expressly incorporated by reference herein. Hemi-coronal brain slices containing striatum were prepared and transfected with control and huntingtin (Htt) constructs.
50 uM KW-6002 (Istradefylline) in combination with 30 uM SP600125 was used as a positive control. YFP is Yellow Fluorescence Protein (YFP) plus vector. mN90Q73 is YFP plus the Htt-exonl-Q73 construct. […]

In assay [6] the test system is HSPA1a. In words: Multigene assay (QuantiGene Plex 2.0), mouse MEF cell line. The assay is classed as cell-based. The conditions noted are these: 6 hours post-compound treatment, Table 1b. The gist of the method: (§3)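 Transcript levels after 6 h compound exposure (7 concentrations) are measured by bDNA hybridization on magnetic beads and SAPE fluorescence. Fold change uses DMSO, then housekeeping-gene, normalization.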

In the next assay the test system is BCL2. The description is as above. The assay is classed as cell-based. Particulars: 6 hours post-compound treatment, Table 1b. Summed up:
as §3

Another assay deals with TUB1. The description is as above. The assay is classed as cell-based. The conditions noted are these: 6 hours post-compound treatment, Table 1a. The gist of the method:
as §3

Assay [7] relates to HspA5. The description is as above. The assay is classed as cell-based. The conditions noted are these: 6 hours post-compound treatment, Table 1b. The gist of the method: as §3
Assay [8] concerns GCLM. Described as above. The assay is classed as cell-based. Particulars: 6 hours post-compound treatment, Table 1a. The gist of the method:
as §3

The subject of the next assay is HMOX. The assay is described as above. The assay is classed as cell-based. Particulars: 6 hours post-compound treatment, Table 1b. Summed up:
as §3

The test system of assay [9] is DDIT3. The description is as above. The assay is classed as cell-based. Particulars: 6 hours post-compound treatment, Table 1a. Summed up: as §3

Each structure is given as a SMILES string.

Take `CC1=C(C#N)C(c2ccccc2OC(C)C)C2=C(CC(c3ccc(Cl)cc3)CC2=O)N1` (stereo not drawn) [C]: the SQSM gene induction result in the assay with SQSM was “— (— Indicates less than 2 fold induction)”. Moreover, in the assay on Hspa1a [1], the HSPA1a gene induction entry is “+ (+ indicates a induction of greater than 2 fold)”. In addition, the HspA5 gene induction result in the assay on HspA5 [2] is “+ (+ indicates a induction of greater than 2 fold)”. Moreover, the GCLM gene induction entry with GCLM [3] is “— (— Indicates less than 2 fold induction)”. Also, the DDIT3 gene induction result in the assay with DDIT3 [4] is reported as “+ (+ indicates a induction of greater than 2 fold)”. Also, the HMOX1 gene induction result in the assay with HMOX1 is “— (— Indicates less than 2 fold induction)”.
Turning to `CC1=C(C#N)C(c2ccccc2OC(C)C)C2=C(CC(c3ccccc3)CC2=O)N1` (stereo not drawn) [D], in the assay with SQSM, the SQSM gene induction result is on record as “— (— Indicates less than 2 fold induction)”. The HSPA1a gene induction result in the assay on Hspa1a [1] is given as “+ (+ indicates a induction of greater than 2 fold)”. In the assay with HspA5 [2], the HspA5 gene induction entry is “— (— Indicates less than 2 fold induction)”. For the same compound, in the assay on GCLM [3], the GCLM gene induction result is recorded as “— (— Indicates less than 2 fold induction)”. Also, in the assay with DDIT3 [4], the DDIT3 gene induction result is listed as “— (— Indicates less than 2 fold induction)”. Also, the HMOX1 gene induction entry in the assay with HMOX1 is listed as “+ (+ indicates a induction of greater than 2 fold)”.
For the compound `CC1=C(C#N)C(c2ccccc2OC(C)C)C2=C(CC(c3cccs3)CC2=O)N1` (stereo not drawn) [drawing 26/Me/CN/o-OCHMe2, 4-(2-isopropoxyphenyl)-2-methyl-5-oxo-7-(thiophen-2-yl)-1,4,5,6,7,8-hexahydroquinoline-3-carbonitrile], in the assay on firefly luciferase, the “Lucif. (luciferase activity induction)” value is reported as “+ (+ indicates a induction of greater than 2 fold)”. Besides, the “medium spiny neurons viability (number of healthy medium spiny neurons)” value in assay [5] is “improved medium spiny neurons viability”. Besides, the HSPA1a gene induction result in the assay with HSPA1a [6] is reported as “− (− Indicates less than 2 fold induction)”. In addition, the BCL2 gene induction result in the assay on BCL2 is “− (− Indicates less than 2 fold induction)”. Further, the TUB1 gene induction result in the assay with TUB1 is given as “− (− Indicates less than 2 fold induction)”. The HspA5 gene induction entry with HspA5 [7] was “− (− Indicates less than 2 fold induction)”. In addition, the GCLM gene induction entry with GCLM [8] is listed as “− (− Indicates less than 2 fold induction)”. The HMOX gene induction result in the assay with HMOX is recorded as “− (− Indicates less than 2 fold induction)”. In addition, the DDIT3 gene induction entry in the assay on DDIT3 [9] is “− (− Indicates less than 2 fold induction)”.

(Values after patent publication US20120214824A1, “PROTEOSTASIS REGULATORS” (priority 2010, published 2012).)
